Experimental data as given in article PMC9995496, “A screen for MeCP2-TBL1 interaction inhibitors using a luminescence-based assay” (Scientific Reports, 2023).
Where a name gives a salt, the structure may show the parent alone. Read-outs that look alike come from different tables or passages of the source. Numbered stars: 1 amine (or outer) side, 2 acyl side, 3 side chain; on linkers, the order of the positions; unused ones are H or OH. Bridge positions count the residues as written; N and C are the ends. Square brackets hold non-standard residues; d marks the D form. Peptide text beside a SMILES is read from it. * marks the point of attachment. pTerphenylCO(4''-OnC5H11) = CCCCCOc1ccc(-c2ccc(-c3ccc(C(=O)*)cc3)cc2)cc1; Orn(4R-OH,5R-OH) = O=C([C@H](C[C@@H](O)[C@@H](O)N[*:3])N[*:1])[*:2]; hTyr(3S-OH,4S-OH) = N[C@H](C(=O)O)[C@H](O)[C@@H](O)c1ccc(O)cc1; Pro(3S-OH,4S-Me) = C[C@H]1CN[C@H](C(=O)O)[C@H]1O; Hyp = O=C(O)[C@@H]1C[C@@H](O)CN1

Test system: PRKACA-PRKAR2A interaction (SmBiT-PRKACA / LgBiT-PRKAR2A), protein kinase A
Design: NanoLuc complementation counter-screen in cell extract, PRKACA with PRKAR2A, loss of luminescence, detects NanoLuc interference
Conditions: counter-screen for NanoLuc interference, 0.5 h, 20 µM, inhibitor

Row | SMILES | Inh (PKA) [%] | Inh (PKA) (Inh (PKA)) [%]
1 | O=C(O)c1ccc(-c2c[nH]c3ncc(-c4ccccc4)cc23)cc1C1CCCC1 [UM0142163:01, GSK 650394] | 18.1 | –
2 | CCOC(=O)[C@H](C)C[C@@H](Cc1ccc(-c2ccccc2)cc1)NC(=O)CCC(=O)O [UM0142165:01, AHU-377(Sacubitril)] | – | 9.484
3 | COc1ccc(-c2ccccc2)cc1NS(=O)(=O)c1cc(Cl)cc(Cl)c1O [UM0142166:01, BMS-303141] | 65.56 | –
4 | COc1cccc(OCCCN)c1-c1cc(Nc2cnc(C#N)cn2)n[nH]1 [UM0142169:01, LY2606368] | 14.04 | –
5 | C=CC(=O)Nc1cc(Nc2nccc(-c3cn(C)c4ccccc34)n2)c(OC)cc1N(C)CCN(C)C [UM0142170:01, AZD-9291] | 6.598 | –
6 | CC(C)Nc1cc(-c2c[nH]c(C(=O)N[C@H](CO)c3cccc(Cl)c3)c2)c(Cl)cn1 [UM0142171:01, VRT752271] | 17.24 | –
7 | Cc1cc(C(N)=O)ccc1-n1c(CCC(=O)O)ccc1-c1ccc(-n2ccnc2)cc1 [UM0142172:01, N6022] | 4.784 | –
8 | COc1cc(NC(=O)Nc2cccc(CNC(=O)O[C@H]3CCOC3)c2)ccc1-c1cnco1 [UM0142173:01, Merimepodib] | 28.05 | –
9 | Cc1cc(-c2nc(-c3ccc(OC(F)(F)F)cc3)no2)nn1Cc1ccnc(N2CCN(C3CC3)CC2)c1 [UM0142175:01, BAY 87-2243] | 5.354 | –
10 | COc1cc2c(NC3CCN(CC4CCCCC4)CC3)nc(N3CCCN(C(C)C)CC3)nc2cc1OCCCN1CCCCC1 [UM0142178:01, UNC 0631] | 0.9058 | –
11 | CCn1c(=O)c(-c2ccc(-c3cncs3)cc2Cl)cc2cnc(Nc3ccc(N4CCN(C)CC4)cc3)nc21 [UM0142182:01, FRAX597] | 16.18 | –
12 | O=C(NCc1ccncc1)C12CC3CC(C1)CC(c1ccc(Cl)cc1)(C3)C2 [UM0142183:01, ABC294640] | 8.98 | –
13 | N#Cc1cc(-c2n[nH]c(-c3ccncc3)n2)ccn1 [UM0142184:01, Topiroxostat] | 3.047 | –
14 | CN[C@H](CC(C)C)C(=O)N[C@H]1C(=O)N[C@@H](CC(N)=O)C(=O)N[C@H]2C(=O)N[C@H]3C(=O)N[C@H](C(=O)N[C@H](C(=O)O)c4cc(O)cc(O)c4-c4cc3ccc4O)[C@H](O)c3ccc(c(Cl)c3)Oc3cc2cc(c3O[C@@H]2O[C@H](CO)[C@@H](O)[C@H](O)[C@H]2O[C@H]2C[C@](C)(N)[C@H](O)[C@H](C)O2)Oc2ccc(cc2Cl)[C@H]1O [UM0142186:01, Vancomycin hydrochloride] | -0.993 | –
15 | CCCCCOc1ccc(-c2ccc(-c3ccc(C(=O)N[C@H]4C[C@@H](O)[C@@H](O)NC(=O)[C@@H]5[C@@H](O)[C@@H](C)CN5C(=O)[C@H]([C@@H](C)O)NC(=O)[C@H]([C@H](O)[C@@H](O)c5ccc(O)cc5)NC(=O)[C@@H]5C[C@@H](O)CN5C(=O)[C@H]([C@@H](C)O)NC4=O)cc3)cc2)cc1 [UM0142187:01, Anidulafungin] ({pTerphenylCO(4''-OnC5H11)}-[Orn(4R-OH,5R-OH)]T[Hyp][hTyr(3S-OH,4S-OH)]T[Pro(3S-OH,4S-Me)]; lactam 1-C) | 1.476 | –
16 | CCOC(=O)[C@@H](N)CCC(=O)N[C@@H](CSCc1ccccc1)C(=O)N[C@@H](C(=O)OCC)c1ccccc1 [UM0142188:01, Ezatiostat hydrochloride] | – | 1.044
17 | c1cc(OCCN2CCCCC2)cc(-c2n[nH]c3ccc(-c4nnc[nH]4)cc23)c1 [UM0142189:01, CC-401] | 1.846 | –
18 | COc1cc(F)c(F)c(Nc2ccc(I)cc2F)c1NS(=O)(=O)C1(C[C@H](O)CO)CC1 [UM0142191:01, Refametinib] | 65.39 | –
19 | CC(=O)Oc1cc2c(s1)CCN(C(C(=O)C1CC1)c1ccccc1F)C2 (centres unmarked) [UM0142193:01, Prasugrel hydrochloride] | – | 10.44

Row | SMILES | Inh (PKA) [%] | Inh (PKA) (Inh (PKA)) [%]
20 | C[S+]([O-])c1ccc(-c2nc(-c3ccc(F)cc3)c(-c3ccncc3)[nH]2)cc1 (centres unmarked) [UM0142194:01, SB 203580 hydrochloride] | – | 15.97
21 | CN(C)C(=O)c1ccc(S(=O)(=O)c2ccc(NC(=O)[C@@](C)(O)C(F)(F)F)c(Cl)c2)cc1 [UM0142195:01, AZD7545] | 0.1491 | –
22 | C[C@@H]1CCNC(=O)c2cc3ccc(C(=O)Nc4nc5ccccc5n4CCCN(C)C)cc3n21 [UM0142196:01, BIX 02565] | 22.65 | –
23 | COc1cc2ncnc(Sc3nnc(C)s3)c2cc1OC [UM0142197:01, SKLB1002] | -0.2342 | –
24 | COc1ccc(S(=O)(=O)N(CCO)c2ccccc2CN(C)C/C=C/c2ccc(Cl)cc2)cc1 [UM0142198:01, KN-93 hydrochloride] | – | 38.66
25 | O=C1c2ccccc2C(=O)c2oc(-c3cccnc3)nc21 [UM0142199:01, SJB3-019A] | 9.933 | –
26 | CC(C)(C)NCC(O)c1cc(O)cc(O)c1 (centres unmarked) [UM0142204:01, Terbutaline Sulfate] | 1.128 | –
27 | CNC[C@H](O)c1ccc(O)c(O)c1 [UM0142209:01, L-Adrenaline] | 7.349 | –
28 | COCCc1ccc(OCC(O)CNC(C)C)cc1 (centres unmarked) [UM0142210:01, Metoprolol Tartrate] | 1.896 | –
29 | CC(C)(C)NCC(O)c1ccc(O)c(CO)c1 (centres unmarked) [UM0142213:01, Salbutamol Sulfate] | -0.5821 | –
30 | c1ccc2c(c1)CCCC2C1=NCCN1 (centres unmarked) [UM0142214:01, Tetrahydrozoline HCl] | -0.4463 | –
31 | COc1ccc(C[C@@H]2c3cc(OC)c(OC)cc3CC[N@+]2(C)CCC(=O)OCCCCCOC(=O)CC[N@@+]2(C)CCc3cc(OC)c(OC)cc3[C@H]2Cc2ccc(OC)c(OC)c2)cc1OC [UM0142215:01, Cisatracurium Besylate] | 2.146 | –
32 | Cc1cccc(Cc2c[nH]cn2)c1C [UM0142216:01, Detomidine HCl] | 4.249 | –
33 | COc1cc2c(cc1OC)CC(=O)N(CCCN(C)C[C@H]1Cc3cc(OC)c(OC)cc31)CC2 [UM0142218:01, Ivabradine HCl] | -0.5336 | –
34 | Cc1cccc(C(C)c2c[nH]cn2)c1C (centres unmarked) [UM0142219:01, Medetomidine HCl] | 7.933 | –
35 | CN1[C@@H]2CC(O)C[C@H]1[C@@H]1O[C@@H]12 (some centres unmarked) [UM0142220:01, Scopine] | 1.123 | –
36 | N=C(N)NC(=N)NCCc1ccccc1 [UM0142225:01, Phenformin HCl] | 1.045 | –
37 | CCC(=O)Nc1cccc(Oc2nc(Nc3ccc(N4CCN(C)CC4)cc3OC)ncc2Cl)c1 [UM0142226:01, WZ4003] | 29.29 | –
38 | CC(C)(C#N)c1cc(Cn2cncn2)cc(C(C)(C)C#N)c1 [UM0142230:01, Anastrozole] | 5.113 | –

Row | SMILES | Inh (PKA) [%] | Inh (PKA) (Inh (PKA)) [%]
39 | COc1ccc2[nH]c([S@@+]([O-])Cc3ncc(C)c(OC)c3C)nc2c1 [UM0142233:01, Esomeprazole Sodium] | – | 0.8501
40 | CCCC(CCC)C(=O)O [UM0142234:01, Divalproex Sodium] | – | 2.043
41 | CCOC(=O)C1=C(C)NC(C)=C(C(=O)OC)C1c1cccc([N+](=O)[O-])c1 (centres unmarked) [UM0142235:01, Nitrendipine] | 91.42 | –
42 | COc1cc2nccc(Oc3ccc(NC(=O)C4(C(=O)Nc5ccc(F)cc5)CC4)cc3)c2cc1OC [UM0142237:01, Cabozantinib malate (XL184)] | – | 10.79
43 | Cc1ccc(C(=O)Nc2ccc(CN3CCN(C)CC3)c(C(F)(F)F)c2)cc1C#Cc1cnc2[nH]ncc2c1 [UM0142238:01, GZD824] | 15.4 | –
44 | CNC(=O)c1cc(Oc2ccc(NC(=O)Nc3cc(C(C)(C)C)nn3-c3ccc4ncccc4c3)c(F)c2)ccn1 [UM0142239:01, DCC-2036 (Rebastinib)] | 12.64 | –
45 | O=C1Nc2ccc(I)cc2/C1=C/c1cc(Br)c(O)c(Br)c1 [UM0142240:01, GW5074] | 70.55 | –
46 | CC(C)(C)c1nc(-c2cccc(NS(=O)(=O)c3c(F)cccc3F)c2F)c(-c2ccnc(N)n2)s1 [UM0142241:01, Dabrafenib (GSK2118436)] | – | 30.14
47 | CC1=C(C(=O)OC(C)C)C(c2cccc([N+](=O)[O-])c2)C(C(=O)OC2CN(C(c3ccccc3)c3ccccc3)C2)=C(N)N1 (centres unmarked) [UM0142244:01, Azelnidipine] | 35.77 | –
48 | CCCC(=O)OCOC(=O)C1=C(C)NC(C)=C(C(=O)OC)C1c1cccc(Cl)c1Cl (centres unmarked) [UM0142245:01, Clevidipine Butyrate] | 81.79 | –
49 | CCOC(=O)C1=C(C)NC(C)=C(C(=O)OC)C1c1cccc(Cl)c1Cl (centres unmarked) [UM0142246:01, Felodipine] | 92.04 | –
50 | CCOC(=O)C1=C(C)NC(C)=C(C(=O)OCC)C1c1ccccc1/C=C/C(=O)OC(C)(C)C [UM0142247:01, Lacidipine] | 92.96 | –
51 | CCCCN1CCCCC1C(=O)Nc1c(C)cccc1C (centres unmarked) [UM0142248:01, Bupivacaine HCl] | -0.8766 | –
52 | CCCCN1CCCC[C@H]1C(=O)Nc1c(C)cccc1C [UM0142248:02, Levobupivacaine HCl] | 0.7845 | –
53 | CCc1c(C(=O)NCCc2ccc(N3CCCCC3)cc2)[nH]c2ccc(Cl)cc12 [UM0142252:01, Org 27569] | 10.23 | –
54 | CCN1/C(=C/C(C)=O)Sc2ccc(OC)cc21 [UM0142254:01, TG003] | 0.5333 | –
55 | Cn1cc(-c2[nH]c3cc(NC(=O)[C@H](N)C4CCCCC4)cc4c3c2C=NNC4=O)cn1 [UM0142256:01, PF-477736] | 39.56 | –
56 | Nc1nccc(Oc2ccc(NC(=O)c3c[nH]cc(-c4ccc(F)cc4)c3=O)cc2F)c1Cl [UM0142257:01, BMS-794833] | 54.88 | –
